Measured values reported in US20230265151A1, “GIP/GLP1 CO-AGONIST COMPOUNDS” (priority 2020, published 2023).
Where two headings read alike, the source gives them in different places.

What was measured:
Type in all cases: cell-based
[1] = target: hGLP-1R (Homo sapiens, UniProt P43220); assay: Functional cAMP formation (HTRF) in HEK-293 clonal cells expressing hGLP-1R, 0.1% bovine casein, without or with 1.0% human serum albumin; design: expressed in transfected cells; details: 37° C.; for Emax: HEK293, cAMP, percent of maximal response to GLP-1(7-36)NH2, read-out: hGLP-1R Emax, % ± SEM; for EC50: cAMP, 0.1% bovine casein (no human serum albumin), geometric mean, read-out: hGLP-1R EC50, nM (SEM, n)
Sequence of hGLP-1R (P43220 24-463): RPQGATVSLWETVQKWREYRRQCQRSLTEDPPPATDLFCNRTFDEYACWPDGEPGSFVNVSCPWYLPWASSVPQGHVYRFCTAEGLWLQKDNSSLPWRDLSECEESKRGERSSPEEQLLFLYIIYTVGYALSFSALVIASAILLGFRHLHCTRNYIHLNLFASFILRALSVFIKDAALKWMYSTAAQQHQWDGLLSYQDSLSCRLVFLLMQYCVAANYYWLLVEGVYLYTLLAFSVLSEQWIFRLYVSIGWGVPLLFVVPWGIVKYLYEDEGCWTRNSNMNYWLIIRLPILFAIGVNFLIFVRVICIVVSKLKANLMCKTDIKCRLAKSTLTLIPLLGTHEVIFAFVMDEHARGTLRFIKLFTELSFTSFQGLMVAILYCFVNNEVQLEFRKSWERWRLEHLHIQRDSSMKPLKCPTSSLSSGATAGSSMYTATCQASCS
Outline: (§1)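 Cells were stimulated with peptide for 30 min at 37° C, then lysed in buffer carrying cAMP-d2 and anti-cAMP Eu3+-cryptate for a competitive HTRF read after at least 60 min at room temperature. The 665/620 nm ratio was converted to nM cAMP against a standard curve.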

[2] = target: T1, hGIPR (Homo sapiens, UniProt P48546); assay: Functional cAMP formation (HTRF) in HEK-293 clonal cells expressing hGIPR, 0.1% bovine casein, without or with 1.0% human serum albumin; details: 37° C.; for Emax: HEK293, cAMP, percent of maximal response to GIP(1-42)NH2, read-out: hGIPR Emax, % ± SEM; for EC50: cAMP, 0.1% bovine casein (no human serum albumin), geometric mean, read-out: hGIPR EC50, nM (SEM, n)
T1 construct: expressed in transfected cells
T1 sequence (P48546 22-466): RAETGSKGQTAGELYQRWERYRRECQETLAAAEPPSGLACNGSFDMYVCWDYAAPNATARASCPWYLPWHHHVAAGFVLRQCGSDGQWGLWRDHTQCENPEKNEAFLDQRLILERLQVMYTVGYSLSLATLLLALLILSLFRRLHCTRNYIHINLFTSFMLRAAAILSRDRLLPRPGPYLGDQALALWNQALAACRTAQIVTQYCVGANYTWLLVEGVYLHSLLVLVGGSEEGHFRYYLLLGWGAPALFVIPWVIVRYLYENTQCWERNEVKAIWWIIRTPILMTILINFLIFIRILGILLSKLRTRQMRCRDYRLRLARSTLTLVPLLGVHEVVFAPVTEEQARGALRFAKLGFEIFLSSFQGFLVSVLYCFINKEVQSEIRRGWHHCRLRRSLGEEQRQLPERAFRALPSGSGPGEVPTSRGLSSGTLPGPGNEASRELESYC
Outline: as §1

[3] = target: T2, hGCGR (Homo sapiens, UniProt P47871); assay: Functional cAMP formation (HTRF) in HEK-293 clonal cells expressing hGCGR, 0.1% bovine casein, without or with 1.0% human serum albumin; details: cAMP, 37° C., read-out: hGCGR EC50, nM (SEM, n)
T2 construct: expressed in transfected cells
T2 sequence (P47871 26-477): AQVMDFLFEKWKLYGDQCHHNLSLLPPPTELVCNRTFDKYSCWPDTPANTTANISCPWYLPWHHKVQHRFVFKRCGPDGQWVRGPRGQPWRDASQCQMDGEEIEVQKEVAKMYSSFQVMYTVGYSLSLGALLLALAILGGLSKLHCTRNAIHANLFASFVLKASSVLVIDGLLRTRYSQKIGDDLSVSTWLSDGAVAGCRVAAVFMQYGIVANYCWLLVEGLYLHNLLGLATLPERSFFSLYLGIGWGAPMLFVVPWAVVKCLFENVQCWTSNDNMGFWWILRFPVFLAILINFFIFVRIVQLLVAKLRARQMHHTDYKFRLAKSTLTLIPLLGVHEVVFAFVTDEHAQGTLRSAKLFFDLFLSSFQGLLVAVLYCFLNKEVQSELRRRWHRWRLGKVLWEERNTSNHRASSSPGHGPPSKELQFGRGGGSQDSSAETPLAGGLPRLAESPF
Outline: as §1

[4] = 0.1% bovine casein and 1.0% human serum albumin
[5] = 0.1% bovine casein, arithmetic mean
[6] = 0.1% bovine casein (no human serum albumin), geometric mean
[7] = 0.1% bovine casein and 1.0% human serum albumin, geometric mean (SEM, n)

Row | Structure (SMILES) | Emax [1, 4] [%] | Emax [1, 5] [%] | EC50 [1] [nM] | Emax [2, 4] [%] | Emax [2, 5] [%] | EC50 [2] [nM] | EC50 [3, 6] [nM] | EC50 [3, 7] [nM]
1 | CC[C@H](C)[C@H](NC(=O)[C@H](CCCN)NC(=O)[C@H](CC(=O)O)NC(=O)[C@H](CC(C)C)NC(=O)[C@](C)(CC(C)C)NC(=O)[C@@H](NC(=O)C(C)(C)NC(=O)[C@H](Cc1ccc(O)cc1)NC(=O)[C@H](CC(=O)O)NC(=O)[C@H](CO)NC(=O)[C@@H](NC(=O)[C@](C)(Cc1ccccc1F)NC(=O)[C@@H](NC(=O)CNC(=O)[C@H](CCC(=O)O)NC(=O)C(C)(C)NC(=O)[C@@H](N)Cc1ccc(O)cc1)[C@@H](C)O)[C@@H](C)O)[C@@H](C)CC)C(=O)N[C@@H](C)C(=O)N[C@@H](CCC(N)=O)C(=O)NC(C)(C)C(=O)N[C@@H](CCC(=O)O)C(=O)N[C@@H](Cc1ccccc1)C(=O)N[C@H](C(=O)N[C@@H](CCCCNC(=O)COCCOCCNC(=O)CC[C@H](NC(=O)COCCOCCNC(=O)CCCCCCCCCCCCC(=O)O)C(=O)O)C(=O)N[C@@](C)(Cc1ccc(O)cc1)C(=O)N[C@@H](CC(C)C)C(=O)N[C@H](C(=O)N[C@@H](CCCCNC(=O)COCCOCCNC(=O)CC[C@H](NC(=O)COCCOCCNC(=O)CCCCCCCCCCCCC(=O)O)C(=O)O)C(=O)NCC(=O)NCC(=O)N1CCC[C@H]1C(=O)N[C@@H](CO)C(=O)N[C@@H](CO)C(=O)NCC(=O)N[C@@H](C)C(=O)N1CCC[C@H]1C(=O)N1CCC[C@H]1C(=O)N1CCC[C@H]1C(=O)N[C@@H](CO)C(N)=O)[C@@H](C)CC)[C@@H](C)CC [Example 365] | 91 | 98.5 | 0.362 | 93.5 | 105 | 0.00809 | > 9950 | > 9950
2 | CC[C@H](C)[C@H](NC(=O)[C@H](CC(C)C)NC(=O)[C@](C)(Cc1ccc(O)cc1)NC(=O)[C@@H](CCC(=O)O)NC(=O)[C@@H](NC(=O)[C@H](Cc1ccccc1)NC(=O)[C@H](CCCCNC(=O)COCCOCCNC(=O)CC[C@H](NC(=O)CCCCCCCCCCCCC(=O)O)C(=O)O)NC(=O)C(C)(C)NC(=O)[C@H](CCC(N)=O)NC(=O)[C@H](C)NC(=O)[C@H](CCCCNC(=O)COCCOCCNC(=O)CC[C@H](NC(=O)CCCCCCCCCCCCC(=O)O)C(=O)O)NC(=O)[C@H](CCCN)NC(=O)[C@H](CC(=O)O)NC(=O)[C@H](CC(C)C)NC(=O)[C@](C)(CC(C)C)NC(=O)[C@@H](NC(=O)C(C)(C)NC(=O)[C@H](Cc1ccc(O)cc1)NC(=O)[C@H](CC(=O)O)NC(=O)[C@H](CO)NC(=O)[C@@H](NC(=O)[C@](C)(Cc1ccccc1F)NC(=O)[C@@H](NC(=O)CNC(=O)[C@H](CCC(=O)O)NC(=O)C(C)(C)NC(=O)[C@@H](N)Cc1ccc(O)cc1)[C@@H](C)O)[C@@H](C)O)[C@@H](C)CC)[C@@H](C)CC)C(=O)N[C@@H](CCC(=O)O)C(=O)NCC(=O)NCC(=O)N1CCC[C@H]1C(=O)N[C@@H](CO)C(=O)N[C@@H](CO)C(=O)NCC(=O)N[C@@H](C)C(=O)N1CCC[C@H]1C(=O)N1CCC[C@H]1C(=O)N1CCC[C@H]1C(=O)N[C@@H](CO)C(N)=O [Example 366] | 98.3 | 89.6 | 0.279 | 95.9 |  | 0.0162 | > 9950 | > 9950
3 | CC[C@H](C)[C@H](NC(=O)[C@H](CC(C)C)NC(=O)[C@](C)(Cc1ccc(O)cc1)NC(=O)[C@@H](CCC(=O)O)NC(=O)[C@@H](NC(=O)[C@H](Cc1ccccc1)NC(=O)[C@H](CCC(=O)O)NC(=O)C(C)(C)NC(=O)[C@H](CCC(N)=O)NC(=O)[C@H](C)NC(=O)[C@H](CCCCNC(=O)COCCOCCNC(=O)CC[C@H](NC(=O)CCCCCCCCCCCCC(=O)O)C(=O)O)NC(=O)[C@H](CCCN)NC(=O)[C@H](CC(=O)O)NC(=O)[C@H](CC(C)C)NC(=O)[C@](C)(CC(C)C)NC(=O)[C@@H](NC(=O)C(C)(C)NC(=O)[C@H](Cc1ccc(O)cc1)NC(=O)[C@H](CC(=O)O)NC(=O)[C@H](CO)NC(=O)[C@@H](NC(=O)[C@](C)(Cc1ccccc1F)NC(=O)[C@@H](NC(=O)CNC(=O)[C@H](CCC(=O)O)NC(=O)C(C)(C)NC(=O)[C@@H](N)Cc1ccc(O)cc1)[C@@H](C)O)[C@@H](C)O)[C@@H](C)CC)[C@@H](C)CC)C(=O)N[C@@H](CCCCNC(=O)COCCOCCNC(=O)CC[C@H](NC(=O)CCCCCCCCCCCCC(=O)O)C(=O)O)C(=O)NCC(=O)NCC(=O)N1CCC[C@H]1C(=O)N[C@@H](CO)C(=O)N[C@@H](CO)C(=O)NCC(=O)N[C@@H](C)C(=O)N1CCC[C@H]1C(=O)N1CCC[C@H]1C(=O)N1CCC[C@H]1C(=O)N[C@@H](CO)C(N)=O [Example 367] |  | 93.9 | 0.366 |  | 112 | 0.019 | > 9950 | 
4 | CC[C@H](C)[C@H](NC(=O)[C@H](CC(C)C)NC(=O)[C@](C)(Cc1ccc(O)cc1)NC(=O)[C@@H](CCC(=O)O)NC(=O)[C@@H](NC(=O)[C@H](Cc1ccccc1)NC(=O)[C@H](CCC(=O)O)NC(=O)C(C)(C)NC(=O)[C@H](CCC(N)=O)NC(=O)[C@H](C)NC(=O)[C@H](CCCCNC(=O)COCCOCCNC(=O)CC[C@H](NC(=O)CCCCCCCCCCCCC(=O)O)C(=O)O)NC(=O)[C@H](CCCN)NC(=O)[C@H](CC(=O)O)NC(=O)[C@H](CC(C)C)NC(=O)[C@](C)(CC(C)C)NC(=O)[C@@H](NC(=O)C(C)(C)NC(=O)[C@H](Cc1ccc(O)cc1)NC(=O)[C@H](CC(=O)O)NC(=O)[C@H](CO)NC(=O)[C@@H](NC(=O)[C@](C)(Cc1ccccc1F)NC(=O)[C@@H](NC(=O)CNC(=O)[C@H](CCC(=O)O)NC(=O)C(C)(C)NC(=O)[C@@H](N)Cc1ccc(O)cc1)[C@@H](C)O)[C@@H](C)O)[C@@H](C)CC)[C@@H](C)CC)C(=O)N[C@@H](CCC(=O)O)C(=O)NCC(=O)NCC(=O)N1CCC[C@H]1C(=O)N[C@@H](CO)C(=O)N[C@@H](CO)C(=O)NCC(=O)N[C@@H](C)C(=O)N1CCC[C@H]1C(=O)N1CCC[C@H]1C(=O)N1CCC[C@H]1C(=O)N[C@@H](CO)C(=O)N[C@@H](CCCCNC(=O)COCCOCCNC(=O)CC[C@H](NC(=O)CCCCCCCCCCCCC(=O)O)C(=O)O)C(N)=O [Example 368] |  |  | 0.411 |  | 105 | 0.0271 | > 9950 | 
5 | CC[C@H](C)[C@H](NC(=O)[C@H](CCCN)NC(=O)[C@H](CC(=O)O)NC(=O)[C@H](CC(C)C)NC(=O)[C@](C)(CC(C)C)NC(=O)[C@@H](NC(=O)C(C)(C)NC(=O)[C@H](Cc1ccc(O)cc1)NC(=O)[C@H](CC(=O)O)NC(=O)[C@H](CO)NC(=O)[C@@H](NC(=O)[C@](C)(Cc1ccccc1F)NC(=O)[C@@H](NC(=O)CNC(=O)[C@H](CCC(=O)O)NC(=O)C(C)(C)NC(=O)[C@@H](N)Cc1ccc(O)cc1)[C@@H](C)O)[C@@H](C)O)[C@@H](C)CC)C(=O)N[C@@H](C)C(=O)N[C@@H](CCC(N)=O)C(=O)NC(C)(C)C(=O)N[C@@H](CCC(=O)O)C(=O)N[C@@H](Cc1ccccc1)C(=O)N[C@H](C(=O)N[C@@H](CCCCNC(=O)COCCOCCNC(=O)CC[C@H](NC(=O)CCCCCCCCCCCCC(=O)O)C(=O)O)C(=O)N[C@@](C)(Cc1ccc(O)cc1)C(=O)N[C@@H](CC(C)C)C(=O)N[C@H](C(=O)N[C@@H](CCCCNC(=O)COCCOCCNC(=O)CC[C@H](NC(=O)CCCCCCCCCCCCC(=O)O)C(=O)O)C(=O)NCC(=O)NCC(=O)N1CCC[C@H]1C(=O)N[C@@H](CO)C(=O)N[C@@H](CO)C(=O)NCC(=O)N[C@@H](C)C(=O)N1CCC[C@H]1C(=O)N1CCC[C@H]1C(=O)N1CCC[C@H]1C(=O)N[C@@H](CO)C(N)=O)[C@@H](C)CC)[C@@H](C)CC [Example 369] |  |  | 0.555 |  |  | 0.037 | > 9950 | 
